# Data published in publication PMC12655529, “Serendipitous Hinge Modulation Hypothetically Reprograms Caerin 1.1-LC Antibacterial Mechanism and Gram-Negative Selectivity” (Pharmaceutics, 2025).
# Square brackets hold non-standard residues; d marks the D form. Peptide text beside a SMILES is read from it.
# Assays:
# [1] = tested on: Escherichia coli ATCC 8739; assay type: cell-based
# E. coli ATCC BAA-2340 = assay type: cell-based, Escherichia coli
# Procedure: (§1) The antimicrobial activities of the peptides were evaluated by determining their minimal inhibitory concentration (MIC) and minimal bactericidal concentration (MBC) values following reported protocols [20]. The tested microorganisms included seven Gram-negative bacterial strains (Escherichia coli ATCC 8739, E. coli ATCC-BAA 2340, E. coli NCTC 13846, Klebsiella pneumoniae ATCC 43816, K. pneumoniae ATCC BAA-2342, Pseudomonas aeruginosa ATCC 9027, Acinetobacter baumannii ATCC BAA-747), three Gram-positive bacterial strains (Staphylococcus aureus ATCC 6538, Enterococcus faecalis NCTC 12697, MRSA NCTC 12493, and the fungal strain Candida albicans ATCC 10231. For the assay, each bacterial strain was cultured overnight at 37 °C in 100 mL of medium in a flask. The cultures were then subcultured to reach the logarithmic growth phase and diluted to 5 × 10^5 CFU/mL. Peptide samples were serially diluted two-fold in microplates, with concentrations ranging from 128 μM to 1 μM. The diluted bacterial suspensions were mixed with the peptide solutions and incubated overnight at 37 °C. The MIC values were determined by measuring the absorbance of each well using a Synergy HT plate reader (Agilent, Cheshire, UK). For MBC determination, aliquots from wells showing no visible growth were inoculated onto agar plates to assess bacterial viability. Each experiment was repeated independently three times and conducted in three independent replicates.
# E. coli NCTC 13846 = assay type: cell-based, Escherichia coli
# [2] = tested on: Klebsiella pneumoniae ATCC 43816; assay type: cell-based
# Procedure: as §1
# [3] = tested on: K. pneumoniae ATCC BAA-2342; assay type: cell-based, Klebsiella pneumoniae
# Procedure: as §1
# [4] = tested on: Pseudomonas aeruginosa ATCC 9027; assay type: cell-based
# [5] = tested on: Acinetobacter baumannii ATCC BAA-747; assay type: cell-based
# Procedure: as §1
# [6] = tested on: Staphylococcus aureus ATCC 6538; assay type: cell-based
# [7] = tested on: Enterococcus faecalis NCTC 12697; assay type: cell-based
# MRSA NCTC 12493 = assay type: cell-based, Staphylococcus aureus
# Procedure: as §1
# horse red blood cells = assay: Haemolysis assay; assay type: cell-based; details: concentration inducing 10% haemolysis of horse erythrocytes; 4% (v/v) in PBS, 2 h, 37 °C, absorbance 570 nm; no haemolysis at maximum testing concentration (128 μM) recorded as 256 μM
# In short: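 Horse erythrocytes, PBS-washed, at 4% (v/v) in PBS were exposed to peptide over a concentration range for 2 h at 37 °C. Supernatant absorbance at 570 nm was read after centrifugation. Haemolysis % was normalised between PBS blank (0%) and 0.1% Triton X-100 (100%).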
# Gram-negative bacteria = assay: Geometric mean MIC and therapeutic index, Gram-negative; assay type: cell-based; details: geometric mean of MICs
# Gram-positive bacteria = assay: Geometric mean MIC and therapeutic index, Gram-positive; assay type: cell-based; details: geometric mean of MICs
# [8] = tested on: HEK 293 human embryonic kidney cells; assay type: cell-based; details: MTT, peptide 128 to 1 μM, absorbance 570 nm; triplicate, three independent repeats; NI = no inhibition activity; read-out: IC50, HEK 293
# Procedure: The peptide’s cytotoxicity against normal cell lines was detected by the MTT assay. Following resuscitation from cryopreservation (−80 °C), the cell line underwent multiple passages to ensure viability and adaptation. Cells were then seeded into 96-well plates and maintained at 37 °C in a 5% CO2 humidified atmosphere for 24 h to achieve proper adherence. After incubation, cells were serum-starved for 4 h using foetal bovine serum (FBS)-free medium (ThermoFisher, Waltham, MA, USA) to synchronise cell cycle progression. Peptide solutions were prepared at concentrations ranging from 128 μM to 1 μM (serial two-fold dilutions) and applied to the cells. Following peptide treatment, 10 μL of MTT (3-(4,5-dimethylthiazol-2-yl)-2,5-diphenyltetrazolium bromide) solution (5 mg/mL in PBS) was added to each well and incubated for 2 h at 37 °C. The medium was then carefully aspirated, and 100 μL of DMSO was added to dissolve the formazan crystals. Absorbance was measured at 570 nm using a microplate reader (Agilent, Cheshire, UK), with a reference wavelength of 630 nm to account for background interference. Experiments were conducted in triplicate and repeated three independent times.
# E. coli (ATCC-BAA 2340) = assay type: cell-based, Escherichia coli
# In short: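 E. coli MIC by broth microdilution, determined after bacteria were pre-exposed to media with 150 mM NaCl, 4.5 mM KCl, 2 mM CaCl2, 1 mM MgCl2, 8 µM ZnCl2, 6 µM NH4Cl, 4 µM FeCl3, or 10% FBS. Three independent experiments, each in triplicate.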
# [9] = tested on: TNF-α secretion of LPS-stimulated RAW 264.7 cells; assay: LPS neutralisation assay (TNF-α ELISA); assay type: cell-based, murine; details: RAW 264.7, 100 ng/mL LPS, 24 h, peptide and hydrocortisone at the same concentration (hydrocortisone 10 μg/mL), LPS alone approximately 100 ng/mL
# Procedure: Murine macrophage RAW 264.7 cells were cultured in 6-well plates at a density of 5 × 10^5 cells per well and allowed to adhere for 24 h at 37 °C in a 5% CO2 humidified incubator. Cells were then stimulated with 100 ng/mL LPS in the presence or absence of test peptides at varying concentrations (typically 1–100 μM). Hydrocortisone (10 μg/mL) served as the positive control for anti-inflammatory activity. After 24 h of incubation, cell culture supernatants were collected and centrifuged at 300× g for 10 min to remove cellular debris. Tumour necrosis factor-alpha (TNF-α) secretion was quantified using a mouse TNF-α ELISA Development Kit (ThermoFisher Scientific, Waltham, MA, USA) according to the manufacturer’s protocol.
# [10] = first value of MIC/MBC cell, 5 × 10^5 CFU/mL, overnight 37 °C, absorbance
# [11] = second value of MIC/MBC cell, agar plating
structure (smiles),measurement,setting,value
CC[C@H](C)[C@H](NC(=O)[C@H](CCCCN)NC(=O)[C@@H]1CCCN1C(=O)[C@H](NC(=O)[C@H](NC(=O)[C@H](Cc1c[nH]cn1)NC(=O)[C@@H]1CCCN1C(=O)[C@@H](NC(=O)[C@@H](NC(=O)[C@H](CCCCN)NC(=O)[C@H](CCCCN)NC(=O)[C@H](CC(C)C)NC(=O)[C@H](CO)NC(=O)[C@H](CCCCN)NC(=O)[C@H](CC(C)C)NC(=O)[C@@H](NC(=O)[C@H](CO)NC(=O)[C@H](CC(C)C)NC(=O)[C@H](CC(C)C)NC(=O)CN)C(C)C)[C@@H](C)CC)C(C)C)C(C)C)C(C)C)C(=O)N[C@@H](C)C(=O)N[C@@H](CCC(=O)O)C(=O)N[C@@H](CCCCN)C(=O)N[C@@H](CC(C)C)C(N)=O [Caerin 1.1-LC 7.11.19K.V(D)V(D)] (H-GLLSVLKSLKKIVPH[dV][dV]PKIAEKL-NH2),"MBC, E. coli (ATCC 8739)",[1]; ATCC 8739,4 µM
same,"MIC, E. coli (ATCC 8739)","[1]; first value of MIC/MBC cell, 5 × 10^5 CFU/mL, peptide 128 to 1 μM two-fold, overnight 37 °C, absorbance, repeated three times",2 µM
same,"MBC, E. coli (ATCC BAA-2340)",E. coli ATCC BAA-2340,4 µM
same,"MIC, E. coli (ATCC BAA-2340)",E. coli ATCC BAA-2340,4 µM
same,"MBC, E. coli (NCTC 13846)",E. coli NCTC 13846,8 µM
same,"MIC, E. coli (NCTC 13846)",E. coli NCTC 13846,8 µM
same,"MIC, K. pneumoniae (ATCC 43816)",[2]; [10],64 µM
same,"MBC, K. pneumoniae (ATCC 43816)",[2]; [11],128 µM
same,"MBC, K. pneumoniae (ATCC BAA-2342)",[3],32 µM
same,"MIC, K. pneumoniae (ATCC BAA-2342)",[3],16 µM
same,"MBC, P. aeruginosa (ATCC 9027)",[4],4/4 µM
same,"MIC, P. aeruginosa (ATCC 9027)",[4],4/4 µM
same,"MIC, A. baumannii (ATCC BAA-747)",[5]; [10],32 µM
same,"MBC, A. baumannii (ATCC BAA-747)",[5]; [11],128 µM
same,"MIC, S. aureus (ATCC 6538)",[6]; [10],128 µM
same,"MBC, S. aureus (ATCC 6538)",[6]; [11],128 µM
same,"MIC, E. faecalis (NCTC 12697)",[7]; [10],>128 µM
same,"MBC, E. faecalis (NCTC 12697)",[7]; [11],>128 µM
same,"MBC, MRSA (NCTC 12493)",MRSA NCTC 12493,64 µM
same,"MIC, MRSA (NCTC 12493)",MRSA NCTC 12493,64 µM
same,HC10,horse red blood cells,256 µM
same,GM MIC Gram-Negative,Gram-negative bacteria,9.75 µM
same,GM MIC Gram-Positive,Gram-positive bacteria,128 µM
same,IC50,[8],130 µM
same,"MIC, Control",E. coli (ATCC-BAA 2340); ATCC-BAA 2340,4 µM
same,"MIC, FBS",E. coli (ATCC-BAA 2340); ATCC-BAA 2340,16 µM
same,"MIC, Fe^3+",E. coli (ATCC-BAA 2340); ATCC-BAA 2340,4 µM
same,"MIC, K^+",E. coli (ATCC-BAA 2340); ATCC-BAA 2340,4 µM
same,"MIC, Mg^2+",E. coli (ATCC-BAA 2340); ATCC-BAA 2340,32 µM
same,"MIC, NH4^+",E. coli (ATCC-BAA 2340); ATCC-BAA 2340,4 µM
same,"MIC, Na^+",E. coli (ATCC-BAA 2340); ATCC-BAA 2340,16 µM
same,"MIC, Ca^2+","E. coli (ATCC-BAA 2340); E. coli (ATCC-BAA 2340), medium with 2 mM CaCl2",128 µM
C[C@]12CCC(=O)C=C1CC[C@@H]1[C@@H]2[C@@H](O)C[C@@]2(C)[C@H]1CC[C@]2(O)C(=O)CO [hydrocortisone],TNF-α level after LPS stimulation,[9],approximately 22.3 ng/mL
